# Read-outs that look alike come from different tables or passages of the source.
# Biological target: T1, mouse TMEM16A mutant I516A (Mus musculus, UniProt Q8BHY3, I516A)
# T1 construct: expressed in transfected cells; host or cells: HEK293T
# T1 sequence (Q8BHY3 1-960 I516A): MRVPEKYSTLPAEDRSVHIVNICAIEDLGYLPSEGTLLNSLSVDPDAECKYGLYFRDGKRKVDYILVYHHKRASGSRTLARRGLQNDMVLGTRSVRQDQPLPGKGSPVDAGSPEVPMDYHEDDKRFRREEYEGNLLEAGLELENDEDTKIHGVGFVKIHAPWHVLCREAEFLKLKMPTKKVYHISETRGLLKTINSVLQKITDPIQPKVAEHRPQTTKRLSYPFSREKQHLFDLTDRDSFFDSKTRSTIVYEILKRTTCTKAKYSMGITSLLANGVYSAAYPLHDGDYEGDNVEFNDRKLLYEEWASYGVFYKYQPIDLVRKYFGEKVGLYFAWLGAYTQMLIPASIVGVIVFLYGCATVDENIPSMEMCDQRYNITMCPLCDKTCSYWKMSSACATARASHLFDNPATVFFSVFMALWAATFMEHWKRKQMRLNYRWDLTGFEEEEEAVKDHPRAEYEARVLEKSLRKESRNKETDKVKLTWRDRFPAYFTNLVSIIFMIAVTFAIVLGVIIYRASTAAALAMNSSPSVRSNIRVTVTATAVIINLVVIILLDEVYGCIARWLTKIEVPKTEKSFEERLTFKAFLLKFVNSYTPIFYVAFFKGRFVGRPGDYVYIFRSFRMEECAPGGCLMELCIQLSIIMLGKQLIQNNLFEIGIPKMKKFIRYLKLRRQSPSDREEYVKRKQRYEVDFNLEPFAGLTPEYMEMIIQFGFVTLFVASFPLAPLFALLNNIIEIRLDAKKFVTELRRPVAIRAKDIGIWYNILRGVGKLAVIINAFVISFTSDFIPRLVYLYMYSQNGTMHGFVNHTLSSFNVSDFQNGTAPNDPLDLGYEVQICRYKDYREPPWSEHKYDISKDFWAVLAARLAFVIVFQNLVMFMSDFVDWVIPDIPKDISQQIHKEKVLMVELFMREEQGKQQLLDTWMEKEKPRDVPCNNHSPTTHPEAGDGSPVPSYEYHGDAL
# Experiment: Inside-out patch recording of 1PBC block, mutant I516A
# Assay type: cell-based
# Conditions: for remaining activity at 1 µM: 1PBC 1; for remaining activity at 1 µM / remaining activity at 3 µM / remaining activity at 10 µM / remaining activity at 30 µM / remaining activity at 100 µM: read-out: fraction of unblocked current; for remaining activity at 3 µM: 1PBC 3; for remaining activity at 10 µM: 1PBC 10; for remaining activity at 30 µM: 1PBC 30; for remaining activity at 100 µM: 1PBC 100
# Procedure: HEK293T cells (ATCC CRL-1573) were maintained in Dulbecco’s modified Eagle’s medium (DMEM; Sigma-Aldrich) supplemented with 10 U ml^−1 penicillin, 0.1 mg ml^−1 streptomycin (Sigma-Aldrich), 2 mM L-glutamine (Sigma-Aldrich), and 10% FBS (Sigma-Aldrich) in a humidified atmosphere containing 5% CO2 at 37 °C. HEK293S GnTI^− cells (ATCC CRL-3022) were maintained in HyClone HyCell TransFx-H medium (GE Healthcare) supplemented with 10 U ml^−1 penicillin, 0.1 mg ml^−1 streptomycin, 4 mM L-glutamine, 0.15% poloxamer 188 (Sigma-Aldrich), and 1% FBS in an atmosphere containing 5% CO2 at 185 rpm at 37 °C. The ac splice variant of mouse TMEM16A (UniProt ID: Q8BHY3), mouse TMEM16B (UniProt ID: Q8CFW1), or mouse TMEM16F (UniProt ID: Q6P9J9) bearing a 3C cleavage site, a Venus YFP, a Myc tag, and a Streptavidin-binding peptide (SBP) downstream of the open reading frame in a modified pcDNA3.1 vector (Invitrogen) were used as described previously[21],[31]. Mutations were introduced using a modified QuikChange method[58] and were verified by sequencing.
# HEK293T cells were transfected with 3–4 μg DNA per 6 cm Petri dish using the calcium phosphate co-precipitation method and were used within 24–96 h after transfection. Recordings were performed on inside-out patches excised from HEK293T cells expressing the construct of interest. Patch pipettes were pulled from borosilicate glass capillaries (O.D. 1.5 mm, I.D. 0.86 mm, Sutter Instrument) and were fire-polished with a microforge (Narishige) before use. Pipette resistance was typically 3–8 MΩ when filled with the recording solutions detailed below. Seal resistance was typically 4 GΩ or higher. Voltage-clamp recordings were made using Axopatch 200B, Digidata 1550, and Clampex 10.7 (Molecular Devices). Analog signals were filtered with the in-built 4-pole Bessel filter at 10 kHz and were digitized at 20 kHz. Solution exchange was achieved using a gravity-fed system through a theta glass pipette mounted on an ultra-fast piezo-driven stepper (Siskiyou). […] All recordings were performed at 20 °C.
# A symmetrical ionic condition was used throughout. Stock solution with Ca^2+-EGTA contained 150 mM NaCl, 5.99 mM Ca(OH)2, 5 mM EGTA, and 10 mM HEPES at pH 7.40. Stock solution with EGTA contained 150 mM NaCl, 5 mM EGTA, and 10 mM HEPES at pH 7.40. Free Ca^2+ concentrations were adjusted by mixing the stock solutions at the required ratios calculated using the WEBMAXC program (http://web.stanford.edu/~cpatton/webmaxcS.htm). Patch pipettes were filled with the stock solution with Ca^2+-EGTA, which has a free Ca^2+ concentration of 1 mM. 1PBC (ChemBridge) stock was reconstituted in anhydrous DMSO (Sigma-Aldrich) at 100 mM and stored at −20 °C. Working solutions with 1PBC were prepared by serial dilution. Unless otherwise stated, experiments were performed at a saturating Ca^2+ concentration as shown in Supplementary Table 1 and the primary data were corrected for current rundown as described previously[21],[25].
# Concentration-response relations, obtained from the ratio of the I-V plots before and after the application of the blocker, were fitted to the Hill equation,1 I/Imax=1/1+IC50/[blocker]^h where I/Imax is the normalized current responses, IC50 defines the concentration at which inhibition is at its half-maximum, and h is the Hill coefficient.
structure (smiles),measurement,setting,value
N#Cc1c(C(F)(F)F)cc(O)n2c1nc1ccccc12 [1PBC],IC50,"0 mV, 2 µM Ca2+",5.69 µM
same,remaining activity at 1 µM,0 mV,81.6%
same,remaining activity at 1 µM,20 mV,79%
same,remaining activity at 1 µM,40 mV,76.3%
same,remaining activity at 1 µM,60 mV,76.1%
same,remaining activity at 1 µM,80 mV,76%
same,remaining activity at 1 µM,100 mV,78.2%
same,remaining activity at 1 µM,120 mV,80.5%
same,remaining activity at 1 µM,140 mV,85%
same,remaining activity at 1 µM,-20 mV,84.2%
same,remaining activity at 1 µM,-40 mV,86.9%
same,remaining activity at 1 µM,-60 mV,90.5%
same,remaining activity at 1 µM,-80 mV,93.4%
same,remaining activity at 1 µM,-100 mV,94.6%
same,remaining activity at 1 µM,-120 mV,96.7%
same,remaining activity at 1 µM,-140 mV,99.6%
same,remaining activity at 3 µM,0 mV,66.1%
same,remaining activity at 3 µM,20 mV,63.1%
same,remaining activity at 3 µM,40 mV,60.5%
same,remaining activity at 3 µM,60 mV,57.3%
same,remaining activity at 3 µM,80 mV,57.5%
same,remaining activity at 3 µM,100 mV,58.7%
same,remaining activity at 3 µM,120 mV,60.2%
same,remaining activity at 3 µM,140 mV,62.8%
same,remaining activity at 3 µM,-20 mV,69.1%
same,remaining activity at 3 µM,-40 mV,74.1%
same,remaining activity at 3 µM,-60 mV,78.3%
same,remaining activity at 3 µM,-80 mV,81.5%
same,remaining activity at 3 µM,-100 mV,84.3%
same,remaining activity at 3 µM,-120 mV,86.9%
same,remaining activity at 3 µM,-140 mV,88%
same,remaining activity at 10 µM,0 mV,37.2%
same,remaining activity at 10 µM,20 mV,33.9%
same,remaining activity at 10 µM,40 mV,31.3%
same,remaining activity at 10 µM,60 mV,30.4%
same,remaining activity at 10 µM,80 mV,30.4%
same,remaining activity at 10 µM,100 mV,30.4%
same,remaining activity at 10 µM,120 mV,31.9%
same,remaining activity at 10 µM,140 mV,35.1%
same,remaining activity at 10 µM,-20 mV,40.4%
same,remaining activity at 10 µM,-40 mV,43.9%
same,remaining activity at 10 µM,-60 mV,48.6%
same,remaining activity at 10 µM,-80 mV,50.8%
same,remaining activity at 10 µM,-100 mV,55.1%
same,remaining activity at 10 µM,-120 mV,58%
same,remaining activity at 10 µM,-140 mV,60.3%
same,remaining activity at 30 µM,0 mV,16.3%
same,remaining activity at 30 µM,20 mV,15%
same,remaining activity at 30 µM,40 mV,13.7%
same,remaining activity at 30 µM,60 mV,12.5%
same,remaining activity at 30 µM,80 mV,12.7%
same,remaining activity at 30 µM,100 mV,13.1%
same,remaining activity at 30 µM,120 mV,14.6%
same,remaining activity at 30 µM,140 mV,16.7%
same,remaining activity at 30 µM,-20 mV,17.7%
same,remaining activity at 30 µM,-40 mV,19.9%
same,remaining activity at 30 µM,-60 mV,22.8%
same,remaining activity at 30 µM,-80 mV,25.3%
same,remaining activity at 30 µM,-100 mV,28%
same,remaining activity at 30 µM,-120 mV,31.5%
same,remaining activity at 30 µM,-140 mV,34.4%
same,remaining activity at 100 µM,0 mV,6.15%
same,remaining activity at 100 µM,20 mV,5.12%
same,remaining activity at 100 µM,40 mV,5.16%
same,remaining activity at 100 µM,60 mV,5.16%
same,remaining activity at 100 µM,80 mV,5.57%
same,remaining activity at 100 µM,100 mV,6.35%
same,remaining activity at 100 µM,120 mV,6.87%
same,remaining activity at 100 µM,140 mV,7.57%
same,remaining activity at 100 µM,-20 mV,7.18%
same,remaining activity at 100 µM,-40 mV,7.63%
same,remaining activity at 100 µM,-60 mV,9.24%
same,remaining activity at 100 µM,-80 mV,10.6%
same,remaining activity at 100 µM,-100 mV,12.4%
same,remaining activity at 100 µM,-120 mV,14.7%
same,remaining activity at 100 µM,-140 mV,17.2%
same,IC50,"20 mV, 2 µM Ca2+",4.91 µM
same,IC50,"40 mV, 2 µM Ca2+",4.32 µM
same,IC50,"60 mV, 2 µM Ca2+",3.97 µM
same,log-fold IC50 (change of mutant vs WT),80 mV,0.3402
same,IC50,"80 mV, 2 µM Ca2+",4 µM
same,IC50,"100 mV, 2 µM Ca2+",4.22 µM
same,IC50,"120 mV, 2 µM Ca2+",4.6 µM
same,IC50,"140 mV, 2 µM Ca2+",5.41 µM
same,IC50,"-20 mV, 2 µM Ca2+",6.57 µM
same,IC50,"-40 mV, 2 µM Ca2+",7.87 µM
same,IC50,"-60 mV, 2 µM Ca2+",9.65 µM
same,IC50,"-80 mV, 2 µM Ca2+",11 µM
same,IC50,"-100 mV, 2 µM Ca2+",12.9 µM
same,IC50,"-120 mV, 2 µM Ca2+",15 µM
same,IC50,"-140 mV, 2 µM Ca2+",17 µM
same,IC50,"I516A, V 0 mV",5.69 µM
same,IC50,"I516A, V 20 mV",4.91 µM
same,IC50,"I516A, V 40 mV",4.32 µM
same,IC50,"I516A, V 60 mV",3.97 µM
same,IC50,"I516A, V 80 mV",4 µM
same,IC50,"I516A, V 100 mV",4.22 µM
same,IC50,"I516A, V 120 mV",4.6 µM
same,IC50,"I516A, V 140 mV",5.41 µM
same,IC50,"I516A, V -20 mV",6.57 µM
same,IC50,"I516A, V -40 mV",7.87 µM
same,IC50,"I516A, V -60 mV",9.65 µM
same,IC50,"I516A, V -80 mV",11 µM
same,IC50,"I516A, V -100 mV",12.9 µM
same,IC50,"I516A, V -120 mV",15 µM
same,IC50,"I516A, V -140 mV",17 µM

# — article PMC9120017, “Inhibition mechanism of the chloride channel TMEM16A by the pore blocker 1PBC” (Nature Communications, 2022)
